{
  "source": "patent US4214001A",
  "about": "“1-(4-Acylamino-phenyl)-2-amino-ethanols and salts thereof” (Boehringer Ingelheim GmbH, priority 1977, dated 1980)",
  "key": {"[1]": {"system": "bronchospasms induced by acetylcholine", "assay": "Bronchospasmolytic activity (method of Konzett et al.), acetylcholine-induced bronchospasm", "format": "in vivo", "conditions": "anesthetized guinea pigs; for ED50: Cavia porcellus, dose which produces a 50% reduction of the bronchospasm, acetylcholine 20 mgm/kg i.v.", "procedure": "The compounds were tested on adult guinea pigs of both sexes by the standard pharmacological test method of Konzett et al., Naunyn-Schmiedeberg's Arch. Exp. Path. Pharmakol. 195, 71-74 (1940). The test animals were anesthetized with 1.5 gm/kg urethane i.p. The bronchospasms were induced by injection of 20 mgm/kg of acetylcholine i.v. The test compound was administered intravenously or intraduodenally. From the average values of maximum decrease in bronchoconstriction obtained at various dosage levels, an ED50 i.e. the dose which produces a 50% reduction of the bronchospasm, with confidence limits according to Fieller, Quart. J. Pharm. Phamacol. 17, 117-123 (1944), was calculated by linear regression analysis according to Linder, Statistische Methoden, 4th Ed., 148-162, published by Birkhauser, Basel, Switzerland (1964)."}, "[2]": {"system": "asthma attack induced by acetylcholine aerosol", "assay": "Antiasthmatic activity (method of Kallos et al.), acetylcholine aerosol", "format": "in vivo, guinea pigs", "procedure": "The standard test method of Kallos et al., Acta med. scand. 91, 292 (1937) was used. The test compound was orally administered to adult guinea pigs which were then exposed to an acetylcholine aerosol steam produced with an aerosol nozzle at 1.5 atmospheres gauge from a 0.4% solution of acetylcholine in an aqueous 0.9% sodium chloride solution. A more than three-fold prolongation of the time until onset of the asthma attack in comparision to untreated controls was evaluated as absolute protection. From the number of animals which were protected at various dosages, an ED50, i.e. the dose which gives absolute protection in 50% of the animals, was calculated by the method of Litchfield and Wilcoxon, J. Pahrmacol. Exper. Ther. 96, 99 (1949)."}, "[3]": {"assay": "Acute toxicity, intravenous, LD50", "conditions": "mouse, in vivo, i.v., mice, animals which died within 14 days", "procedure": "The intravenous toxicity was determined on laboratory mice of both sexes having an average body weight of 20 gm. From the number of animals which died within 14 days at various dosage levels, the median lethal dose (LD50) was calculated by the method of Litchfield and Wilcoxon, supra."}, "[4]": {"conditions": "iv, read-out: ED50 after i.v. administration"}, "[5]": {"conditions": "i.d. (intraduodenal), read-out: ED50 after i.d. administration"}},
  "note": "Where two headings read alike, the source gives them in different places.",
  "data": [
    {"smiles": "CCOC(=O)Nc1c(F)cc(C(O)CNC(C)(C)C)cc1C#N.Cl", "note": "(stereo not drawn) [B, 1-(4'-ethoxycarbonylamino-3'-cyano-5'-fluoro-phenyl)-2-tert.-butylamino-ethanol hydrochloride]", "values": [
      {"measurement": "ED50", "setting": "[1]; [4]", "value": 0.0056, "unit": "mg/kg"},
      {"measurement": "ED50", "setting": "[1]; [5]", "value": 0.007, "unit": "mg/kg"},
      {"measurement": "t/2 after i.v. administration", "setting": "[1]", "value": 70, "unit": "min"},
      {"measurement": "ED50", "setting": "[2]; Cavia porcellus, po, dose which gives absolute protection in 50% of the animals (more than three-fold prolongation of time until onset of asthma attack), acetylcholine aerosol 0.4%", "value": 0.0143, "unit": "mg/kg"},
      {"measurement": "t/2", "setting": "[2]; p.o., guinea pigs", "value": 150, "unit": "min"},
      {"measurement": "Max. effect after min.", "setting": "[2]; p.o., guinea pigs, time of maximum effect", "value": "15 to 30", "unit": "min"},
      {"measurement": "LD50 at 336 h", "setting": "[3]", "value": 97.5, "unit": "mg/kg"}
    ]},
    {"smiles": "CCOC(=O)Nc1ccc(C(O)CNC(C)(C)C)cc1C#N.Cl", "note": "(stereo not drawn) [C, 1-(4'-ethoxycarbonylamino-3'-cyano-phenyl)-2-tert. butylamino-ethanol hydrochloride]", "values": [
      {"measurement": "ED50", "setting": "[1]; [4]", "value": 0.0235, "unit": "mg/kg"},
      {"measurement": "ED50", "setting": "[1]; [5]", "value": 0.0087, "unit": "mg/kg"},
      {"measurement": "t/2 after i.v. administration", "setting": "[1]", "value": "> 50", "unit": "min"},
      {"measurement": "LD50 at 336 h", "setting": "[3]", "value": 67.2, "unit": "mg/kg"}
    ]},
    {"smiles": "CCOC(=O)Nc1ccc(C(O)CNC(C)C)cc1C#N.Cl", "note": "(stereo not drawn) [D, 1-(4'-ethoxycarbonylamino-3'-cyano-phenyl)-2-isopropylamino-ethanol hydrochloride]", "values": [
      {"measurement": "ED50", "setting": "[1]; [4]", "value": 0.064, "unit": "mg/kg"},
      {"measurement": "t/2 after i.v. administration", "setting": "[1]", "value": "> 50", "unit": "min"},
      {"measurement": "LD50 at 336 h", "setting": "[3]", "value": 61.9, "unit": "mg/kg"}
    ]},
    {"smiles": "CCOC(=O)Nc1c(F)cc(C(O)CNC(C)(C)C)cc1Cl.Cl", "note": "(stereo not drawn) [A, 1-(4'-ethoxycarbonylamino-3'-chloro-5'-fluoro-phenyl)-2-tert.-butylamino-ethanol hydrochloride]", "values": [
      {"measurement": "ED50", "setting": "[1]; [4]", "value": 0.0307, "unit": "mg/kg"},
      {"measurement": "ED50", "setting": "[1]; [5]", "value": 0.0323, "unit": "mg/kg"},
      {"measurement": "t/2 after i.v. administration", "setting": "[1]", "value": 60, "unit": "min"},
      {"measurement": "LD50 at 336 h", "setting": "[3]", "value": 70.2, "unit": "mg/kg"}
    ]}
  ]
}
